Results published in patent US4026888A, “Certain derivatives of particular 3-thiolated cephalosporins” (priority 1976, dated 1977).
≈ marks a conversion by molar mass, not a printed value. Where two headings read alike, the source gives them in different places.

Key:
Str. pneumoniae A9585 = assay: Antibiotic activity in nutrient broth (MIC); assay type: cell-based; settings: Streptococcus pneumoniae, A9585, inoculum 10^-3 dilution of overnight broth culture; 45% AAB + 5% serum + 50% broth; derivatives adjusted for BL-S640 content
From the text: (§1) Antibiotic Activity In Nutrient Broth
(§2) * 45% AAB+ 5% serum+ 50% broth listed above.
(§3) ** Dilution of overnight broth culture.
(§4) Antibiotic Spectrum Nutrient Broth
(§5) * 45% AAB + 5% serum + 50% broth
(§6) Antibiotic Spectrum in Nutrient Broth
(§7) *45% AAB + 5% serum + 50% broth listed above.

Str. pyogenes A9604 = assay: Antibiotic activity in nutrient broth (MIC); assay type: cell-based; settings: Streptococcus pyogenes, A9604, inoculum 10^-3; 45% AAB + 5% serum + 50% broth; derivatives adjusted for BL-S640 content; read-out: MIC
From the text: as §1, §2, §3, §4, §5, §6, §7

E. coli Juhl A15119 = assay: Antibiotic activity in nutrient broth (MIC); assay type: cell-based; settings: Escherichia coli, JUHLA15119, inoculum 10^-4; derivatives adjusted for BL-S640 content; read-out: MIC
From the text: as §1, §3, §4, §6

Ent. cloacae A9656 = assay: Antibiotic activity in nutrient broth (MIC); assay type: cell-based; settings: Enterobacter cloacae, A9656, inoculum 10^-4; derivatives adjusted for BL-S640 content
From the text: as §1, §3, §4, §6

Ent. cloacae A9657 = assay: Antibiotic activity in nutrient broth (MIC); assay type: cell-based; settings: Enterobacter cloacae, A9657, inoculum 10^-4; derivatives adjusted for BL-S640 content; read-out: MIC
From the text: as §1, §3, §4, §6

Ent. cloacae A9659 = assay: Antibiotic activity in nutrient broth (MIC); assay type: cell-based; settings: Enterobacter cloacae, A9659, inoculum 10^-4; derivatives adjusted for BL-S640 content; read-out: MIC
From the text: as §1, §3, §4, §6

K. pneumoniae A15130 = assay: Antibiotic activity in nutrient broth (MIC); assay type: cell-based; settings: Klebsiella pneumoniae, A15130, inoculum 10^-4; derivatives adjusted for BL-S640 content; read-out: MIC
From the text: as §1, §3, §4, §6

K. pneumoniae A9977 [1] = assay: Antibiotic activity in nutrient broth (MIC); assay type: cell-based; settings: Klebsiella pneumoniae, inoculum 10^-4, derivatives adjusted for BL-S640 content, read-out: MIC
From the text: as §1, §3, §4, §6

Pr. mirabilis A9900 = assay: Antibiotic activity in nutrient broth (MIC); assay type: cell-based; settings: Proteus mirabilis, inoculum 10^-4, derivatives adjusted for BL-S640 content
From the text: as §1, §3, §4, §6

Pr. morganii A15153 = assay: Antibiotic activity in nutrient broth (MIC); assay type: cell-based; settings: Morganella morganii, A15153, inoculum 10^-4; derivatives adjusted for BL-S640 content; read-out: MIC
From the text: as §1, §3, §4, §6

Ps. aeruginosa A9843A = assay: Antibiotic activity in nutrient broth (MIC); assay type: cell-based; settings: Pseudomonas aeruginosa
From the text: as §1, §3, §4, §6

S. aureus BX1633 A9606 = assay: Antibiotic activity in nutrient broth (MIC); assay type: cell-based; settings: Staphylococcus aureus, derivatives adjusted for BL-S640 content, read-out: MIC
From the text: as §1, §3, §4, §6

[2] = system: S. aureus Meth-Res A15097; assay: Antibiotic activity in nutrient broth (MIC); assay type: cell-based; settings: inoculum 10^-3, Meth-Res, derivatives adjusted for BL-S640 content
From the text: as §1, §3, §4, §6

S. aureus Smith A9537 = assay: Antibiotic activity in nutrient broth (MIC); assay type: cell-based; settings: derivatives adjusted for BL-S640 content
From the text: as §1, §3, §4, §6

Sal. enteritidis A9531 = assay: Antibiotic activity in nutrient broth (MIC); assay type: cell-based; settings: Salmonella enterica, ENTERITIDIS, inoculum 10^-4; derivatives adjusted for BL-S640 content; read-out: MIC
From the text: as §1, §3, §4, §6

Ser. marcescens A20019 = assay: Antibiotic activity in nutrient broth (MIC); assay type: cell-based; settings: derivatives adjusted for BL-S640 content
From the text: as §1, §3, §4, §6

[3] = Mouse blood levels after oral administration; assay type: in vivo; settings: for Blood Level: listed as Compound of Ex. 1, 100 mg/kg; for concentration at 0.5 h / concentration at 1 h / concentration at 2 h / concentration at 3.5 h: mouse, blood, po, 100 mg/kg
Method: Mouse Blood Levels After Oral
Administration Of 100 mg./kg. Body Weight
The compounds were prepared in
Tween - carboxymethylcellulose
and 8 mice were used for each
Mouse Blood Levels After PO
Administration of 100 mg./kg. Body Weight
The compounds were prepared in Tween-CMC. BL-S640
The compounds were prepared in Tween-CMC. Values are the average of two

[4] = Paper chromatography of rat urine for antibiotically active metabolites; assay type: in vivo; settings: IM; rat urine 0-2 and 2-4 hours
Method: Paper chromatograms were run on rat urine collected between 0 and 2 and between 2 and 4 hours following IM administration of BL-S1055 and 640, for the detection of antibiotically active metabolites using descending chromatography with system No. 9 (butyl acetate:n-butanol:glacial acetic acid:H2 O= 80:15:40:24).

P. mirabilis A9707 = assay: Oral PD50 in mice; assay type: in vivo; settings: Proteus mirabilis, mice treated at 1 and 3.5 hours post-challenge
Method: (§8) Comparative Oral PD50 Values of
(§9) BL-S640 Derivatives in Mice
(§10) *Mice were treated at 1 and 3.5 hours post-challenge.

P. mirabilis A9900 [5] = assay: Oral PD50 in mice; assay type: in vivo; settings: mice treated at 1 and 3.5 hours post-challenge; for ED50: Proteus mirabilis, A9900, po, 3.5 h
P. mirabilis A9900 [6] = assay: IM PD50 in mice; assay type: in vivo; settings: Proteus mirabilis
From the text: Comparative IM PD50 Values of
as §9

E. coli A15119 = assay: Oral PD50 in mice; assay type: in vivo; settings: Escherichia coli, A15119, po, 3.5 h, read-out: PD50
Method: as §8, §9, §10

K. pneumoniae A9977 [7] = assay: Oral PD50 in mice; assay type: in vivo; settings: Klebsiella pneumoniae, A9977, po, 3.5 h, read-out: PD50
Method: as §8, §9, §10

S. pyogenes A9604 = assay: Oral PD50 in mice; assay type: in vivo; settings: Streptococcus pyogenes, mice treated at 1 and 3.5 hours post-challenge
Method: as §8, §9, §10

[8] = Staphylococcus aureus, read-out: MIC
[9] = Staphylococcus aureus, SMITHA9537, inoculum 10^-4, + 50% serum, read-out: MIC
[10] = Staphylococcus aureus, SMITHA9537, inoculum 10^-4, nutrient broth, read-out: MIC
[11] = Serratia marcescens, A20019, inoculum 10^-4
[12] = Example 2, PO 100 mg./kg., 0.5 hr, Tween-CMC, 16 or 32 mice, read-out: Blood Levels
[13] = Example 2, PO 100 mg./kg., 1 hr, Tween-CMC, 16 or 32 mice, read-out: Blood Levels
[14] = Example 2, PO 100 mg./kg., 2 hr, Tween-CMC, 16 or 32 mice, read-out: Blood Levels
[15] = Example 2, PO 100 mg./kg., 3.5 hr, Tween-CMC, 16 or 32 mice, read-out: Blood Levels

SMILES	MIC (Str. pneumoniae A9585) [µg/mL]	MIC (Str. pyogenes A9604) [µg/mL]	MIC (E. coli Juhl A15119) [µg/mL]	MIC (Ent. cloacae A9656) [µg/mL]	MIC (Ent. cloacae A9657) [µg/mL]	MIC (Ent. cloacae A9659) [µg/mL]	MIC (K. pneumoniae A15130) [µg/mL]	MIC (K. pneumoniae A9977 [1]) [µg/mL]	MIC (Pr. mirabilis A9900) [µg/mL]	MIC (Pr. morganii A15153) [µg/mL]	MIC (Ps. aeruginosa A9843A) [µg/mL]	MIC (S. aureus BX1633 A9606; BX1633A9606, inoculum 10^-2) [µg/mL]	MIC (S. aureus BX1633 A9606; BX1633A9606, inoculum 10^-3) [µg/mL]	MIC [2, 8] [µg/mL]	MIC (S. aureus Smith A9537; [9]) [µg/mL]	MIC (S. aureus Smith A9537; [10]) [µg/mL]	MIC (Sal. enteritidis A9531) [µg/mL]	MIC (Ser. marcescens A20019; [11]) [µg/mL]	concentration at 0.5 h [3, 12] [ng/mL]	concentration at 1 h [3, 13] [ng/mL]	other results
O=C(O)C1=C(CSc2cnn[nH]2)CS[C@@H]2[C@H](N3C(=O)[C@@H](c4ccc(O)cc4)NC3c3ccc(S(=O)(=O)O)o3)C(=O)N12 (stereo partly drawn) [BL-S1027]	0.03	0.03	1 (≈ 1.61 µM)	> 125	1 (≈ 1.61 µM)	32 (≈ 51.6 µM)	1 (≈ 1.61 µM)	0.5 (≈ 0.806 µM)	0.5 (≈ 0.806 µM)	32 (≈ 51.6 µM)	> 125	4 (≈ 6.44 µM)	0.5 (≈ 0.806 µM)	4 to 8 (≈ 6.44 to 12.9 µM)	2	0.27 (≈ 0.435 µM)	0.25 (≈ 0.403 µM)	> 125	49800	45100	MIC [2]: 4 µg/mL (≈ 6.44 µM); MIC (S. aureus Smith A9537; inoculum 10^-4, nutrient broth): 0.25 µg/mL (≈ 0.403 µM); MIC (Ser. marcescens A20019; inoculum 10^-4): 125 µg/mL (≈ 201 µM); Blood Level ([3]; Table II, oral 100 mg./kg., 0.5 hr, Tween-carboxymethylcellulose, 8 mice, 30 min): 54600 ng/mL; Blood Level ([3]; Table II, oral 100 mg./kg., 1 hr, Tween-carboxymethylcellulose, 8 mice, 60 min): 53500 ng/mL; Blood Level ([3]; Table II, oral 100 mg./kg., 2 hr, Tween-carboxymethylcellulose, 8 mice, 120 min): 27600 ng/mL; Blood Level ([3]; Table II, oral 100 mg./kg., 3.5 hr, Tween-carboxymethylcellulose, 8 mice, 210 min): 8200 ng/mL; concentration at 2 h [3, 14]: 24000 ng/mL; concentration at 3.5 h [3, 15]: 9300 ng/mL; concentration at 0.5 h ([3]; Table II, oral 100 mg./kg., 0.5 hr, Tween-carboxymethylcellulose, 8 mice, read-out: Blood Level): 45000 ng/mL; concentration at 1 h ([3]; Table II, oral 100 mg./kg., 1 hr, Tween-carboxymethylcellulose, 8 mice, read-out: Blood Level): 36600 ng/mL; concentration at 2 h ([3]; Table II, oral 100 mg./kg., 2 hr, Tween-carboxymethylcellulose, 8 mice, read-out: Blood Level): 20400 ng/mL; concentration at 3.5 h ([3]; Table II, oral 100 mg./kg., 3.5 hr, Tween-carboxymethylcellulose, 8 mice, read-out: Blood Level): 10400 ng/mL; Mouse blood levels, oral, compared with BL-S640 propylene glycol adduct ([3]; oral, in words): approximately equal; Hydrolysis to the parent compound (BL-S640) [4]: complete hydrolysis; ED50 (P. mirabilis A9707): 1.8 mg/kg; ED50 (P. mirabilis A9900 [5]; oral, read-out: PD50): 6.3 mg/kg; ED50 (P. mirabilis A9900 [6]): 1.6 mg/kg
O=C(O)COc1ccccc1C1N[C@H](c2ccc(O)cc2)C(=O)N1[C@@H]1C(=O)N2C(C(=O)O)=C(CSc3cnn[nH]3)CS[C@H]12 (stereo partly drawn) [BL-S1048]	0.06	0.03	0.5 (≈ 0.8 µM)	> 125	0.5 (≈ 0.8 µM)	32 (≈ 51.2 µM)	1 (≈ 1.6 µM)	0.5 (≈ 0.8 µM)	0.5 (≈ 0.8 µM)	32 (≈ 51.2 µM)	> 125	2 (≈ 3.2 µM)	0.25 (≈ 0.4 µM)	4 (≈ 6.4 µM)	2	0.13 (≈ 0.208 µM)	0.13 (≈ 0.208 µM)	> 125	46500	44600	concentration at 2 h [3, 14]: 28100 ng/mL; concentration at 3.5 h [3, 15]: 12800 ng/mL; Hydrolysis to the parent compound (BL-S640) [4]: complete hydrolysis; ED50 (E. coli A15119; oral, mice treated at 1 and 3.5 hours post-challenge): 3.1 mg/kg; ED50 (E. coli A15119): 1.6 mg/kg; ED50 (K. pneumoniae A9977 [7]): 0.7 mg/kg; ED50 (P. mirabilis A9707): 2.4 mg/kg; ED50 (S. pyogenes A9604): 0.2 mg/kg; ED50 (P. mirabilis A9900 [5]; read-out: PD50, oral): 4.7 mg/kg; PD50 (P. mirabilis A9900 [5]; oral): 3.6 mg./kg./treatment; ED50 (P. mirabilis A9900 [6]): 1.6 mg/kg
